Experiment in all cases: relative viability (nuclei count vs DMSO), 5 days (fraction); higher = more cells survive
Compound in the experiment “AZD5582 + Linsitinib”: C[C@@H](C(=O)N[C@@H](C1CCCCC1)C(=O)N2CCC[C@H]2C(=O)N[C@@H]3[C@@H](CC4=CC=CC=C34)OCC#CC#CCO[C@@H]5CC6=CC=CC=C6[C@@H]5NC(=O)[C@@H]7CCCN7C(=O)[C@H](C8CCCCC8)NC(=O)[C@H](C)NC)NC [AZD5582] + C[C@]1(O)C[C@@H](c2nc(-c3ccc4ccc(-c5ccccc5)nc4c3)c3c(N)nccn32)C1 [Linsitinib] (partner 1 µM)
Put shortly:
(§1)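 Relative viability is defined as nuclei in treated wells over nuclei in vehicle wells. Duplicate plates were run and medians reported. Lung cancer cell lines in 1536-well plates were dosed by pin tool one day after seeding, with one drug or with a fixed anchor-drug dose plus five library-drug doses (not always all listed) in √10 steps, and nuclei were counted after 5 days.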

Compound in the experiment “AZD5582 + Dasatinib”: C[C@@H](C(=O)N[C@@H](C1CCCCC1)C(=O)N2CCC[C@H]2C(=O)N[C@@H]3[C@@H](CC4=CC=CC=C34)OCC#CC#CCO[C@@H]5CC6=CC=CC=C6[C@@H]5NC(=O)[C@@H]7CCCN7C(=O)[C@H](C8CCCCC8)NC(=O)[C@H](C)NC)NC [AZD5582] + Cc1nc(Nc2ncc(C(=O)Nc3c(C)cccc3Cl)s2)cc(N2CCN(CCO)CC2)n1 [Dasatinib] (partner 0.075 µM)
Summed up: as §1

Compound in the experiment “AZD5582 + Trametinib”: C[C@@H](C(=O)N[C@@H](C1CCCCC1)C(=O)N2CCC[C@H]2C(=O)N[C@@H]3[C@@H](CC4=CC=CC=C34)OCC#CC#CCO[C@@H]5CC6=CC=CC=C6[C@@H]5NC(=O)[C@@H]7CCCN7C(=O)[C@H](C8CCCCC8)NC(=O)[C@H](C)NC)NC [AZD5582] + CC(=O)Nc1cccc(-n2c(=O)n(C3CC3)c(=O)c3c(Nc4ccc(I)cc4F)n(C)c(=O)c(C)c32)c1 [Trametinib] (partner 0.02 µM)
Summed up:
as §1

Compound in the experiment “AZD5582 + Palbociclib”: C[C@@H](C(=O)N[C@@H](C1CCCCC1)C(=O)N2CCC[C@H]2C(=O)N[C@@H]3[C@@H](CC4=CC=CC=C34)OCC#CC#CCO[C@@H]5CC6=CC=CC=C6[C@@H]5NC(=O)[C@@H]7CCCN7C(=O)[C@H](C8CCCCC8)NC(=O)[C@H](C)NC)NC [AZD5582] + CC(=O)c1c(C)c2cnc(Nc3ccc(N4CCNCC4)cn3)nc2n(C2CCCC2)c1=O [Palbociclib] (partner 0.5 µM)
Put shortly:
as §1

Compound in the experiment “AZD5582 + Navitoclax”: C[C@@H](C(=O)N[C@@H](C1CCCCC1)C(=O)N2CCC[C@H]2C(=O)N[C@@H]3[C@@H](CC4=CC=CC=C34)OCC#CC#CCO[C@@H]5CC6=CC=CC=C6[C@@H]5NC(=O)[C@@H]7CCCN7C(=O)[C@H](C8CCCCC8)NC(=O)[C@H](C)NC)NC [AZD5582] + CC1(C)CCC(c2ccc(Cl)cc2)=C(CN2CCN(c3ccc(C(=O)NS(=O)(=O)c4ccc(N[C@H](CCN5CCOCC5)CSc5ccccc5)c(S(=O)(=O)C(F)(F)F)c4)cc3)CC2)C1 [Navitoclax] (partner 0.5 µM)
Summed up:
as §1

Regarding A-427, the relative viability was determined as 1.01 with AZD5582 + Linsitinib (first compound 0.001581 µM); 1.04 with AZD5582 + Linsitinib (first compound 0.005 µM); 1.12 with AZD5582 + Linsitinib (first compound 0.01581 µM); 0.955 with AZD5582 + Linsitinib (first compound 0.05 µM); 0.593 with AZD5582 + Dasatinib (first compound 0.001581 µM); 0.638 with AZD5582 + Dasatinib (first compound 0.005 µM). For the same cell line, the relative viability is 0.683 with AZD5582 + Dasatinib (first compound 0.01581 µM); 0.384 with AZD5582 + Dasatinib (first compound 0.05 µM); 0.568 in the experiment with AZD5582 + Trametinib (first compound 0.001581 µM); 0.608 in the experiment with AZD5582 + Trametinib (first compound 0.005 µM); 0.71 with AZD5582 + Trametinib (first compound 0.01581 µM); 0.566 in the experiment with AZD5582 + Trametinib (first compound 0.05 µM). Besides, the relative viability turned out to be 0.462 in the experiment with AZD5582 + Palbociclib (first compound 0.001581 µM); 0.473 in the experiment with AZD5582 + Palbociclib (first compound 0.005 µM); 0.528 in the experiment with AZD5582 + Palbociclib (first compound 0.01581 µM); 0.495 with AZD5582 + Palbociclib (first compound 0.05 µM); 0.779 with AZD5582 + Navitoclax (first compound 0.001581 µM); 0.831 with AZD5582 + Navitoclax (first compound 0.005 µM). In addition, the relative viability in the experiment with AZD5582 + Navitoclax (first compound 0.01581 µM) came out at 0.896; with AZD5582 + Navitoclax (first compound 0.05 µM) it was 0.756.
As to NCI-H1651, the relative viability stood at 0.894 with AZD5582 + Linsitinib (first compound 0.001581 µM); 1.06 with AZD5582 + Linsitinib (first compound 0.005 µM); 1.01 with AZD5582 + Linsitinib (first compound 0.01581 µM); 1.21 in the experiment with AZD5582 + Linsitinib (first compound 0.05 µM); 0.428 in the experiment with AZD5582 + Dasatinib (first compound 0.001581 µM); 0.478 with AZD5582 + Dasatinib (first compound 0.005 µM). Moreover, the relative viability with AZD5582 + Dasatinib (first compound 0.05 µM) worked out at 0.552; with AZD5582 + Trametinib (first compound 0.001581 µM), 0.751; with AZD5582 + Trametinib (first compound 0.005 µM), 0.847; in the experiment with AZD5582 + Trametinib (first compound 0.01581 µM), 0.8; with AZD5582 + Trametinib (first compound 0.05 µM), 0.946; with AZD5582 + Palbociclib (first compound 0.001581 µM), 0.489. The relative viability with AZD5582 + Palbociclib (first compound 0.005 µM) was 0.52; with AZD5582 + Palbociclib (first compound 0.01581 µM) it was 0.492; with AZD5582 + Palbociclib (first compound 0.05 µM), 0.608; with AZD5582 + Navitoclax (first compound 0.001581 µM), 0.981; with AZD5582 + Navitoclax (first compound 0.005 µM), 1; with AZD5582 + Navitoclax (first compound 0.01581 µM), 1.21. In addition, the relative viability in the experiment with AZD5582 + Navitoclax (first compound 0.05 µM) stood at 1.14.
With EPLC-272H, the relative viability is 0.624 in the experiment with AZD5582 + Linsitinib (first compound 0.001581 µM); 0.717 with AZD5582 + Linsitinib (first compound 0.005 µM); 0.984 with AZD5582 + Linsitinib (first compound 0.01581 µM); 0.229 in the experiment with AZD5582 + Linsitinib (first compound 0.05 µM); 0.0652 with AZD5582 + Dasatinib (first compound 0.001581 µM); 0.305 in the experiment with AZD5582 + Dasatinib (first compound 0.01581 µM). Further, the relative viability in the experiment with AZD5582 + Dasatinib (first compound 0.05 µM) was 0.0573; in the experiment with AZD5582 + Trametinib (first compound 0.001581 µM), 0.15; in the experiment with AZD5582 + Trametinib (first compound 0.01581 µM), 0.292; with AZD5582 + Trametinib (first compound 0.05 µM) it was 0.0966; with AZD5582 + Palbociclib (first compound 0.001581 µM) it was 0.165; with AZD5582 + Palbociclib (first compound 0.01581 µM) it was 0.32. Besides, the relative viability in the experiment with AZD5582 + Palbociclib (first compound 0.05 µM) is 0.127; with AZD5582 + Navitoclax (first compound 0.001581 µM), 0.608; with AZD5582 + Navitoclax (first compound 0.005 µM), 0.743; with AZD5582 + Navitoclax (first compound 0.01581 µM), 1.05; with AZD5582 + Navitoclax (first compound 0.05 µM), 0.208.
For the cell line NCI-H2009, the relative viability with AZD5582 + Linsitinib (first compound 0.001581 µM) came to 1.2; with AZD5582 + Linsitinib (first compound 0.005 µM) it was 1.21; in the experiment with AZD5582 + Linsitinib (first compound 0.01581 µM), 1.2; with AZD5582 + Linsitinib (first compound 0.05 µM), 1.16; with AZD5582 + Dasatinib (first compound 0.001581 µM), 0.297; with AZD5582 + Dasatinib (first compound 0.005 µM), 0.382. The relative viability in the experiment with AZD5582 + Dasatinib (first compound 0.01581 µM) is 0.268; with AZD5582 + Dasatinib (first compound 0.05 µM), 0.307; in the experiment with AZD5582 + Trametinib (first compound 0.001581 µM) it was 0.281; with AZD5582 + Trametinib (first compound 0.005 µM), 0.297; with AZD5582 + Trametinib (first compound 0.01581 µM), 0.295; with AZD5582 + Trametinib (first compound 0.05 µM), 0.333. The relative viability turned out to be 0.24 in the experiment with AZD5582 + Palbociclib (first compound 0.001581 µM); 0.225 with AZD5582 + Palbociclib (first compound 0.005 µM); 0.184 with AZD5582 + Palbociclib (first compound 0.01581 µM); 0.203 in the experiment with AZD5582 + Palbociclib (first compound 0.05 µM); 1.14 with AZD5582 + Navitoclax (first compound 0.001581 µM); 1.21 in the experiment with AZD5582 + Navitoclax (first compound 0.005 µM). Further, the relative viability was 1.15 in the experiment with AZD5582 + Navitoclax (first compound 0.01581 µM) and 1.18 with AZD5582 + Navitoclax (first compound 0.05 µM).

These data come from the supplement of paper PMC10307832.
